Source: paper PMC9630929 (Journal of medicinal chemistry, 2022)

Columns and labels:
PBRM1-BD5 = details: cited from earlier work
SMARCA2 bromodomain [1] = details: cited from earlier work
SMARCA2 bromodomain [2] = details: DSF; cited from earlier work
PC3 cells = details: 0.1, 1, 10 μM; compound 7 up to 100 μM
SMARCA2B bromodomain [3] = molecular target: SMARCA2B bromodomain (Homo sapiens, UniProt P51531); type: binding; details: DSF, 100 μM inhibitor, 10 μM bromodomain
[4] = system: LNCaP cells expressing shRNA against PBRM1 or vector control; type: cell-based, human; details: 10 μM, 5 days
[5] = Solubility observed in the AlphaScreen assay; type: physicochemical; details: at tested concentrations
[6] = system: other tested bromodomains; details: DSF, 100 μM inhibitor, 10 μM bromodomain
SMARCA2B bromodomain [7] = details: cited from earlier work

Sequence of SMARCA2B bromodomain (Homo sapiens, UniProt P51531) (P51531 1373-1493 isoform P51531-2 limits assumed): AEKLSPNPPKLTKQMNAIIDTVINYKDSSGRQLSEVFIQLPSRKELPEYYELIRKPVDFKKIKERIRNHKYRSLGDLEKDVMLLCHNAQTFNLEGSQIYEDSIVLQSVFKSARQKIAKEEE

## O=C(/C=C/N1C[C@H]2C[C@@H]1CN2c1ccccn1)c1ccccc1O [PFI-3]
PBRM1-BD5
  binding toward PBRM1-BD5: nanomolar binding
SMARCA2 bromodomain [1]
  binding toward SMARCA2 bromodomain: nanomolar binding

## CCC(/C=C1\CCn2c1nc(=O)c1c(Cl)cccc12)CC [Compound 7, (E)-6-Chloro-3-(2-ethylbutylidene)-2,3-dihydropyrrolo[1,2-a]quinazolin-5(1H)-one]
SMARCA2 bromodomain [2]
  ΔTm SMARCA2 bromodomain: > 2.5 °C
PC3 cells
  growth inhibition of PC3 cells: more substantial inhibition

## Cc1cccc(C2NC(=O)c3c(Cl)cccc3N2)c1 (centres unmarked) [Compound 16, 5-Chloro-2-(3-methylphenyl)-2,3-dihydroquinazolin-4(1H)-one]
SMARCA2B bromodomain [3]
  SMARCA2B ΔTm: did not exhibit detectable thermal stabilization
[4]
  effect on LNCaP viability with native PBRM1 vs PBRM1 knockdown: more significant effect on LNCaP viability in cells with native PBRM1 levels than in cells with PBRM1 knockdown
PC3 cells
  growth inhibition of PC3 cells: do not inhibit the growth

## CN(C)/C=C1\CCn2c1nc(=O)c1c(Cl)cccc12 [Compound 2, (E)-6-Chloro-3-((dimethylamino)methylene)-2,3-dihydropyrrolo[1,2-a]quinazolin-5(1H)-one]
PBRM1-BD5
  binding toward PBRM1-BD5: nanomolar binding
SMARCA2 bromodomain [1]
  binding toward SMARCA2 bromodomain: nanomolar binding

## Cc1cc(C)c(C2NC(=O)c3c(Cl)cccc3N2)c(C)c1 (centres unmarked) [Compound 22, 5-Chloro-2-(2,4,6-trimethylphenyl)-2,3-dihydroquinazolin-4(1H)-one]
[5]
  solubility in the AlphaScreen assay: solubility issues

## Cc1ccccc1C1NC(=O)c2c(Cl)cccc2N1 (centres unmarked) [Compound 15, 5-Chloro-2-(2-methylphenyl)-2,3-dihydroquinazolin-4(1H)-one]
SMARCA2B bromodomain [3]
  SMARCA2B ΔTm: did not exhibit detectable thermal stabilization
[6]
  thermal stabilization of the other tested bromodomains (ΔTm): < 1 °C

## CCC(CC)C1CC12CCn1c2nc(=O)c2c(Cl)cccc21 (centres unmarked) [LM146]
SMARCA2B bromodomain [7]
  binding toward SMARCA2B bromodomain: low micromolar affinity

## Cc1cccc(C2NC(=O)c3c(Br)cccc3N2)c1 (centres unmarked) [Compound 34, 5-Bromo-2-(3-methylphenyl)-2,3-dihydroquinazolin-4(1H)-one]
PC3 cells
  growth inhibition of PC3 cells: do not inhibit the growth
